# In PubChem BioAssay AID1259407 (Chemical Carcinogenesis Research Information System (CCRIS), 2018):
# Entries after “also recorded” stand apart in the source; their conditions may differ. Activity calls are given as the source filed them. No rule for the calls is given here.
# Tested on: CCRIS mutagenicity, Ames/micronucleus/aberration tests
# Assay: CCRIS mutagenicity studies
structure (smiles),measurement,setting,value
Oc1ccc(Cl)c(Cl)c1Cl,mutagenic call,"End Point: IN VITRO CHROMOSOMAL ABERRATIONS, Test System: CHINESE HAMSTER LUNG CELLS (CHL), Metabolic Activation: NONE",inactive; negative
same,mutagenic call,"End Point: IN VITRO CHROMOSOMAL ABERRATIONS, Test System: CHINESE HAMSTER LUNG CELLS (CHL), Metabolic Activation: RAT, LIVER, S-9, KC-400",inactive; negative
same,mutagenic call,"End Point: IN VITRO CHROMOSOMAL ABERRATIONS, Test System: CHINESE HAMSTER OVARY CELLS (CHO), Metabolic Activation: NONE",inactive; negative
same,mutagenic call,"End Point: IN VITRO CHROMOSOMAL ABERRATIONS, Test System: CHINESE HAMSTER OVARY CELLS (CHO), Metabolic Activation: RAT, LIVER, S-9, AROCLOR 1254",active; positive (structural changes); positive only at highest dose where a total of 25
same,mutagenic call,"End Point: IN VITRO CHROMOSOMAL ABERRATIONS, Test System: CHL CELLS, Metabolic Activation: S-9",inactive; positive (structural changes); multilaboratory comparison among 5 labs; 4 report; also recorded: inactive; positive (structural changes); multilaboratory comparison among 6 labs; 5 report
same,mutagenic call,"End Point: IN VITRO CHROMOSOMAL ABERRATIONS, Test System: CHO CELLS, Metabolic Activation: NONE",inactive; positive (structural changes); multilaboratory comparison among 5 labs; 4 report; also recorded: inactive; negative; multilaboratory comparison among 5 labs; 1 reported weakly positive; 4; also recorded: inactive; negative; multilaboratory comparison among 4 labs; negative except for 1 weak po
same,mutagenic call,"End Point: IN VITRO CHROMOSOMAL ABERRATIONS, Test System: CHO CELLS, Metabolic Activation: S-9",active; positive (structural changes); multilaboratory comparison among 6 labs; all repo; also recorded: inactive; positive (structural changes); multilaboratory comparison among 5 labs; 2 report
same,mutagenic call,"Test System: AMES SALMONELLA TYPHIMURIUM, Strain/Indicator: TA97, Metabolic Activation: HAMSTER, LIVER, S-9, AROCLOR 1254 (10 OR 30%), Method: PREINCUBATION",inactive; negative
same,mutagenic call,"Test System: AMES SALMONELLA TYPHIMURIUM, Strain/Indicator: TA97, Metabolic Activation: NONE, Method: PREINCUBATION",inactive; negative
same,mutagenic call,"Test System: AMES SALMONELLA TYPHIMURIUM, Strain/Indicator: TA97, Metabolic Activation: RAT, LIVER, S-9, AROCLOR 1254 (10 OR 30%), Method: PREINCUBATION",inactive; negative
same,mutagenic call,"Test System: AMES SALMONELLA TYPHIMURIUM, Strain/Indicator: TA98, Metabolic Activation: HAMSTER, LIVER, S-9, AROCLOR 1254 (10 OR 30%), Method: PREINCUBATION",inactive; negative
same,mutagenic call,"Test System: AMES SALMONELLA TYPHIMURIUM, Strain/Indicator: TA98, Metabolic Activation: NONE, Method: PREINCUBATION",inactive; negative
same,mutagenic call,"Test System: AMES SALMONELLA TYPHIMURIUM, Strain/Indicator: TA98, Metabolic Activation: RAT, LIVER, S-9, AROCLOR 1254 (10 OR 30%), Method: PREINCUBATION",inactive; negative
same,mutagenic call,"Test System: AMES SALMONELLA TYPHIMURIUM, Strain/Indicator: TA100, Metabolic Activation: HAMSTER, LIVER, S-9, AROCLOR 1254 (10 OR 30%), Method: PREINCUBATION",inactive; negative
same,mutagenic call,"Test System: AMES SALMONELLA TYPHIMURIUM, Strain/Indicator: TA100, Metabolic Activation: NONE, Method: PREINCUBATION",inactive; negative
same,mutagenic call,"Test System: AMES SALMONELLA TYPHIMURIUM, Strain/Indicator: TA100, Metabolic Activation: RAT, LIVER, S-9, AROCLOR 1254 (10 OR 30%), Method: PREINCUBATION",inactive; negative
same,mutagenic call,"Test System: AMES SALMONELLA TYPHIMURIUM, Strain/Indicator: TA1535, Metabolic Activation: HAMSTER, LIVER, S-9, AROCLOR 1254 (10 OR 30%), Method: PREINCUBATION",inactive; negative
same,mutagenic call,"Test System: AMES SALMONELLA TYPHIMURIUM, Strain/Indicator: TA1535, Metabolic Activation: NONE, Method: PREINCUBATION",inactive; negative
same,mutagenic call,"Test System: AMES SALMONELLA TYPHIMURIUM, Strain/Indicator: TA1535, Metabolic Activation: RAT, LIVER, S-9, AROCLOR 1254 (10 OR 30%), Method: PREINCUBATION",inactive; negative
same,mutagenic call,"Test System: AMES SALMONELLA TYPHIMURIUM, Strain/Indicator: TA1537, Metabolic Activation: HAMSTER, LIVER, S-9, AROCLOR 1254 (30%), Method: PREINCUBATION",inactive; negative
same,mutagenic call,"Test System: AMES SALMONELLA TYPHIMURIUM, Strain/Indicator: TA1537, Metabolic Activation: NONE, Method: PREINCUBATION",inactive; negative
same,mutagenic call,"Test System: AMES SALMONELLA TYPHIMURIUM, Strain/Indicator: TA1537, Metabolic Activation: RAT, LIVER, S-9, AROCLOR 1254 (30%), Method: PREINCUBATION",inactive; negative
Cc1ccc2cc3c4c(ccc3c3c2c1CC3)C(O)C(O)C=C4 (stereo not drawn),mutagenic call,"Test System: CHINESE HAMSTER V-79, Strain/Indicator: V-79/8-AZAGUANINE, Metabolic Activation: NONE, Method: STANDARD PLATE",active; positive
